Test results as given in patent publication US11879001B2, “Conjugate comprising an IL-2 moiety” (ASCENDIS PHARMA ONCOLOGY DIVISION A/S, priority 2020, dated 2024).
Several values for one entry are separate records, joined by “and”; a condition that tells them apart may be missing. Equal entries are not always repeated. One block for each substance: values may come before it.

Tests used:
human IL-2Rα = target: T1, human IL-2Rα (Homo sapiens, UniProt P01589); test: Biacore binding to human IL-2Rα-Fc; conditions: independent measurement
T1 construct: purchased
T1 sequence (P01589 22-272): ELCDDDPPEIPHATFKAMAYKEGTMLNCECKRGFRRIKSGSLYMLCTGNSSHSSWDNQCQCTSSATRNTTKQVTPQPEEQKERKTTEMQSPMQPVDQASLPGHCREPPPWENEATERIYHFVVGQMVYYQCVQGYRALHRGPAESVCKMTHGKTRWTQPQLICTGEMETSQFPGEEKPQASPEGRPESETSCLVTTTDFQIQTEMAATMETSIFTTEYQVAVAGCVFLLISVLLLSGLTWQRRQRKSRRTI
Method: (§1) Binding affinity/kinetics needed to determine the KD of biased IL-2 to IL-2Rα, the KD of biased IL-2 to IL-2Rβ, the KD of aldesleukin to IL-2Rα and the KD of aldesleukin to IL-2Rβ may be assessed using surface plasmon resonance (SPR), measured on a Biacore instrument (GE Healthcare) as follows: A human Fc capture surface on a CM5 (or alternatively C1 or CM4) chip is prepared by covalent coating with anti-human Fc antibody or alternatively a protein A chip is used. Next, IL-2Rβ-Fc or IL2-Rα-Fc is immobilized on the chip. […] Analytes are each exposed to the receptor-modified chip for a suitable amount of time, such as for 1 to 30 minutes, which may for example be 2 minutes or may be 3 minutes and are then washed away for a suitable amount of time, such as 2 to 60 minutes, which may for example be 10 minutes. The resulting binding curves from the dilution series are fit to a 1:1 kinetic model to correlate observed response units (R) to the association and dissociation rate constants, ka and kd: […]

IL-5 = test: Serum IL-5 cytokine levels (ELISA or MSD) in treated Cynos; type: in vivo, Cynomolgus macaques; conditions: ~0.044 mg/kg IV x5 daily
Method: Two studies were conducted to measure the pharmacodynamic effects of either Aldesleukin (Prometheus, National Drug Code 65483011607) (SEQ ID NO:15) 11 or 5 in Cynos. In the first study, four Cynos ranging in weight from 7.77-10.6 kg (average 9.2 kg) were treated intravenously with five sequential daily 0.4 mg doses of 11 on days 1-5 (average mg/kg: 0.044). In the second study, four Cynos ranging in weight from 2.46-3.69 kg (average 3.13 kg) were treated with a single intravenous dose of either 0.1 mg/kg (n=2) or 0.3 mg/kg (n=2) of 5. All animals were chair trained prior to the study. For both studies, peripheral blood samples were taken before and after treatment at various timepoints as indicated and analyzed for lymphocyte counts, eosinophil counts and cytokines. For animals treated with 5, additional flow cytometry experiments were performed. For measurements of (absolute) lymphocyte counts and eosinophil counts, whole blood was processed on hematology analyzers. For IL-5 and IL-6 cytokine measurements, serum was processed from whole blood and analyzed by ELISA or MSD. […] Cell populations were analyzed using the following phenotypes and gated for percentage of cells which were positive for proliferation marker Ki67.

human IL-2Rβ = target: T2, human IL-2Rβ (Homo sapiens, UniProt P14784); test: Biacore binding to human IL-2Rβ-Fc
T2 construct: purchased
T2 sequence (P14784 27-551): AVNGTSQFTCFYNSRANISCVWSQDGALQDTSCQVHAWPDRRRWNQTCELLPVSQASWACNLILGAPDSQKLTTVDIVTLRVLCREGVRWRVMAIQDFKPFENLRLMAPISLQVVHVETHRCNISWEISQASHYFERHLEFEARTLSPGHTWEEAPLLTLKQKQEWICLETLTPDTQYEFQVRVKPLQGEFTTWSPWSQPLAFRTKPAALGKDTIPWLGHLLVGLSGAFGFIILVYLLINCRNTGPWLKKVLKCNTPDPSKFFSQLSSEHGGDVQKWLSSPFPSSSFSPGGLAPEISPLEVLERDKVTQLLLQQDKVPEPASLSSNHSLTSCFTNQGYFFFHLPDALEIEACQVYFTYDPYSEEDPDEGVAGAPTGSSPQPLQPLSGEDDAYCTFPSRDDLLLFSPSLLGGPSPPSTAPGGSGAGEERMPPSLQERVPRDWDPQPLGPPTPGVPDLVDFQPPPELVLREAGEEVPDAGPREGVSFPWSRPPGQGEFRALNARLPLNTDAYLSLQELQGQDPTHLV
Method: as §1

[1] = test system: peripheral blood lymphocytes and eosinophils; test: Peripheral blood lymphocyte and eosinophil counts (hematology analyzers) in treated Cynos; type: in vivo, Cynomolgus macaques; conditions: ~0.044 mg/kg IV x5 daily
Method: (§2) Two studies were conducted to measure the pharmacodynamic effects of either Aldesleukin (Prometheus, National Drug Code 65483011607) (SEQ ID NO:15) 11 or 5 in Cynos. In the first study, four Cynos ranging in weight from 7.77-10.6 kg (average 9.2 kg) were treated intravenously with five sequential daily 0.4 mg doses of 11 on days 1-5 (average mg/kg: 0.044). In the second study, four Cynos ranging in weight from 2.46-3.69 kg (average 3.13 kg) were treated with a single intravenous dose of either 0.1 mg/kg (n=2) or 0.3 mg/kg (n=2) of 5. All animals were chair trained prior to the study. For both studies, peripheral blood samples were taken before and after treatment at various timepoints as indicated and analyzed for lymphocyte counts, eosinophil counts and cytokines. For animals treated with 5, additional flow cytometry experiments were performed. For measurements of (absolute) lymphocyte counts and eosinophil counts, whole blood was processed on hematology analyzers. For IL-5 and IL-6 cytokine measurements, serum was processed from whole blood and analyzed by ELISA or MSD. For flow cytometry measurements (Immunophenotyping, IPT, FACS), Cynomolgus monkey whole blood was collected in EDTA anticoagulant and kept at room temperature until processed for flow cytometry. Blood was lysed and samples were stained for extracellular surface markers and intracellular phenotypic and lineage markers by standard methods. Cell populations were analyzed using the following phenotypes and gated for percentage of cells which were positive for proliferation marker Ki67.

IL-6 = test: Serum IL-6 cytokine levels (ELISA or MSD) in treated Cynos; type: in vivo, Cynomolgus macaques; conditions: ~0.044 mg/kg IV x5 daily
Method: as §2

[2] = test system: pSTAT5 in Tregs, CD8+ T cells, NK cells; test: pSTAT5 in lymphocyte subsets of whole cynomolgus monkey blood (flow cytometry); type: cell-based
Method: (§3) To evaluate the cell type specific immunostimulatory effects of 3 in primary human or monkey cells, whole human or cynomolgus monkey blood from two donors each was incubated with various concentrations of 3 or 13 for 30 minutes and analyzed by flow cytometry for intracellular levels of phosphorylated STAT5 (pSTAT5) in unique cell subsets such as Tregs which predominately express IL-2Rα/β/γ as well as CD8+ T cells (CD8) and NK cells which predominately express IL-2Rβ/γ. Additionally, CD8^+ T cells were further analyzed for CD8^+ CD45RA^+ Naïve (CD8 N) as well as CD8^+ CD45RA^− Memory (CD8 M) subsets. Similar experiments were performed with mouse blood using a different panel of mouse specific antibodies. All subsets were analyzed for median fluorescence intensities of pSTAT5 and EC50 values were calculated for each compound across all cell types.

[3] = test system: pSTAT5 in Tregs, CD8+ T cells, NK cells; test: pSTAT5 in lymphocyte subsets of mouse blood (flow cytometry); type: cell-based
Method: [The source words this procedure for another organism and says it was used here with some conditions changed.] as §3, with “Similar experiments were performed with mouse blood using a different panel of mouse specific antibodies.” left out

[4] = test system: pSTAT5 in Tregs, CD8+ T cells, NK cells; test: pSTAT5 in lymphocyte subsets of whole human blood (flow cytometry); type: cell-based
Method: as §3

KD for IL-2Rα compared with 12 (human IL-2Rα): highly comparable KD values
KD for IL-2Rβ compared with 12 (human IL-2Rβ; independent measurement): highly comparable KD values
Substance: 11: Aldesleukin, recombinant human Interleukin-2 (SEQ ID NO:15) [Compound 11]
average serum peak IL-5 levels (IL-5): 117.78 pg/mL
IL-5 (IL-5; Study Day -3): 0.28 pg/mL and 0.1895 pg/mL and 0.2445 pg/mL and 0.233 pg/mL
average fold increase in eosinophil counts ([1]; Day 8): 6.92 fold
average fold increase in lymphocyte counts ([1]; Day 8): 2.77 fold
average fold increase in eosinophil counts ([1]; Day 10): 5.94 fold
average fold increase in lymphocyte counts ([1]; Day 10): 2.79 fold
Lymphocyte Counts ([1]; Study Day 1): 4995 µL⁻¹ and 4670.6 µL⁻¹ and 4845 µL⁻¹ and 4617.6 µL⁻¹
Lymphocyte Counts ([1]; Study Day 4): 3739.1 µL⁻¹ and 2646 µL⁻¹ and 2703.2 µL⁻¹ and 3034 µL⁻¹
Lymphocyte Counts ([1]; Study Day 5): 4144.5 µL⁻¹ and 3990 µL⁻¹ and 3784 µL⁻¹
Lymphocyte Counts ([1]; Study Day 8): 11186 µL⁻¹ and 11088 µL⁻¹ and 8086 µL⁻¹ and 14958 µL⁻¹
Lymphocyte Counts ([1]; Study Day 9): 10260 µL⁻¹ and 10045 µL⁻¹ and 9548 µL⁻¹ and 13878 µL⁻¹
Lymphocyte Counts ([1]; Study Day 10): 8316 µL⁻¹ and 10664 µL⁻¹ and 12079 µL⁻¹ and 14885 µL⁻¹
Lymphocyte Counts ([1]; Study Day 11): 7304 µL⁻¹ and 9640 µL⁻¹ and 8736 µL⁻¹ and 7720 µL⁻¹
Lymphocyte Counts ([1]; Study Day 12): 5652 µL⁻¹ and 9520 µL⁻¹ and 8325 µL⁻¹ and 7518 µL⁻¹
Lymphocyte Counts ([1]; Study Day 15): 6720 µL⁻¹ and 9700 µL⁻¹ and 5468.3 µL⁻¹ and 6198.4 µL⁻¹
Lymphocyte Counts ([1]; Study Day 19): 2385.6 µL⁻¹ and 3965.5 µL⁻¹ and 2067 µL⁻¹ and 3139.5 µL⁻¹
Lymphocyte Counts ([1]; Study Day -4 (Baseline)): 4032 µL⁻¹ and 4514.4 µL⁻¹ and 4189.5 µL⁻¹ and 3564 µL⁻¹
Lymphocyte Counts ([1]; Study Day -5 (Baseline)): 4074 µL⁻¹ and 3530.6 µL⁻¹ and 4719 µL⁻¹ and 4376.3 µL⁻¹
average serum peak IL-6 levels (IL-6): 58.66 pg/mL
IL-6 (IL-6; Study Day 2.25): 6.79 pg/mL and 9.02 pg/mL and 7.69 pg/mL and 9.95 pg/mL
IL-6 (IL-6; Study Day 5): 0.75 pg/mL and 0.81 pg/mL and 0.46 pg/mL and 0.48 pg/mL
IL-6 (IL-6; Study Day 5.25): 3.67 pg/mL and 3.59 pg/mL and 2.42 pg/mL and 4.21 pg/mL

Kd (human IL-2Rβ; Biacore): ~500 nM
Substance: 12: unbiased control recombinant human IL-2 (SEQ ID NO:45) [Compound 12]

pSTAT5 EC50, Treg ([2]; whole cynomolgus monkey blood, 30 minutes, Treg): 0.09 ng/mL
EC50 for pSTAT5 in NK cells ([3]; mouse blood): 9,694.74 ng/ml
EC50 for pSTAT5 in Tregs ([3]; mouse blood): 0.37 ng/ml
pSTAT5 EC50, CD8 ([3]; mouse blood, CD8+ T cells): 24,040.56 ng/mL
pSTAT5 EC50, CD8 ([4]; additional human blood experiments (Table 29), CD8): 4.94 ng/mL
pSTAT5 EC50, NK ([4]; additional human blood experiments (Table 29), NK): 17.59 ng/mL
pSTAT5 EC50, Treg ([4]; additional human blood experiments (Table 29), Treg): 0.047 ng/mL
EC50 for pSTAT5 in NK cells ([4]; human blood, 30 minutes): 6.01 ng/ml
EC50 for pSTAT5 in Tregs ([4]; human blood, 30 minutes): 0.09 ng/ml
pSTAT5 EC50, CD8 ([4]; whole human blood, 30 minutes, CD8+ T cells (Table 27)): 25.69 ng/mL
Substance: 13: his-tagged mammalian expressed control human IL-2 (SEQ ID NO:46) [Compound 13]
Fold Potency Loss vs Human, Treg ([2]; cynomolgus monkey Treg vs human Treg, pSTAT5 EC50): 1
Fold Potency Loss vs Human, CD8 ([3]; mouse CD8 vs human CD8, pSTAT5 EC50): 935.79
Fold Potency Loss vs Human, NK ([3]; mouse NK vs human NK, pSTAT5 EC50): 1613.10
Fold Potency Loss vs Human, Treg ([3]; mouse Treg vs human Treg, pSTAT5 EC50): 4.11
